Consider four molecules from patent US20190211397A1, “INHIBITORS OF GPR132 FOR USE IN PREVENTING AND/OR TREATING CHEMOTHERAPY-INDUCED NEUROPATHIC PAIN” (Fraunhofer-Gesellschaft zur Foerderung der angewandten …, priority 2016, published 2019).

In one data set the test system is TRPV1. Kind of data set: Calcium imaging of DRG neurons: TRPV1 sensitization (two capsaicin stimuli, Δratio). The class given is cell-based, mice. The protocol:
DRG primary cultures were prepared as described previously (Brenneis et al., 2011 b). Briefly, twenty to thirty murine dorsal roots ganglia (DRGs) were dissected from spinal segments and transferred directly into ice-cold Hanks' balanced salt solution with CaCI2 and MgCI2 (lnvitrogen, Carlsbad, Calif., USA). The DRGs were than incubated with Neurobasal Medium (lnvitrogen, Carlsbad, Calif., USA) containing 500 U/ml collagenase (Sigma, Deisenhofen, Germany) and 2.5 U/ml dispase II (Roche, Mannheim, Germany) for 75 mins at 37° C. After removal of the collagenase/dispase-solution cells were washed three times with medium containing 10% FCS, penicillin/streptomycin/gentamycin (lnvitrogen, Carlsbad, Calif., USA) and incubated in 0.05% trypsin for 10 min at 37° C. After two washing steps, the cells were mechanically dissociated with a 1 ml pipette and plated on Poly-L-lysine (Sigma) coated coverslips. After incubation at 37° C. for 2 h, Neurobasal Medium containing glutamine (2 mm), penicillin (100 U/ml), streptomycin (100 μg/ml), B-27 and gentamicin (50 μg/ml) was added to the cells and incubated overnight. The neurons were used for Calcium imaging the next day.
Calcium-imaging experiments were performed with a Leica calcium-imaging setup, consisting of a Leica DMI 4000 b inverted microscope equipped with a DFC360 FX (CCD) camera, Fura-2 filters, and an N-Plan 10×/0.25 Ph1 objective (all from Leica), was used. Images were taken every 2 s and were processed with the LAS AF-software (Leica). For each experiment, an area with large cell numbers 24 h after preparation (see DRG primary cultures) was chosen and 40-110 cells were monitored simultaneously. Cells were loaded with 5 μM fura-2-AM-ester (Biotium), incubated for 45-60 min at 37° C. and washed with ringer solution (145 mM NaCI, 1.25 mM CaCl2, 1 mM MgCl2, 5 mM KCI, 10 mM D-glucose, and 10 mM HEPES, adjusted to pH 7.3). Baseline measurements were performed with ringer solution at a flow rate of 1-2 ml/min at room temperature. For the activation of TRPV1 we used a solution of 200 nM capsaicin (Sigma), for TRPA1 activation 50 μM allyl isothiocyanate (AITC, Fluka Analytic) and for TRPM8 100 μM L-menthol (Sigma) dissolved in ringer solution. For TRP-channel sensitization, cells were incubated for 2 mins with different concentrations (50 nM-1000 nM) of (±) 9-HODE (Cayman) or (±) 13-HODE (Cayman) before the second stimulus took place. For control stimulations, the corresponding volume of DMSO (Sigma) was mixed in ringer solution and applied with the same flow rate. 10 μM of the PKA inhibitor H89 (Tocris) or 1 μM of the PKC inhibitor GF1 09203X (Tocris) was co-incubated with fura-2 for 45 mins. As positive control for PKA activation 40 iJM 8-bromo-cAMP (Cayman) and for PKC activation 500 nM bradykinin (Cayman) was used. At the end of each measurement, 50 mM KCl was applied to identify neurons.

For a further data set, the system named is PKC. As to the kind of experiment: PKC inhibitor on TRPV1 sensitization in DRG neurons (calcium imaging). The class given is cell-based, mice. As to conditions: GF109203X 1 μM 45 mins, 9-HODE 200 nM. The protocol:
(§1) DRG primary cultures were prepared as described previously (Brenneis et al., 2011 b). Briefly, twenty to thirty murine dorsal roots ganglia (DRGs) were dissected from spinal segments and transferred directly into ice-cold Hanks' balanced salt solution with CaCI2 and MgCI2 (lnvitrogen, Carlsbad, Calif., USA). The DRGs were than incubated with Neurobasal Medium (lnvitrogen, Carlsbad, Calif., USA) containing 500 U/ml collagenase (Sigma, Deisenhofen, Germany) and 2.5 U/ml dispase II (Roche, Mannheim, Germany) for 75 mins at 37° C. […]
(§2) Calcium-imaging experiments were performed with a Leica calcium-imaging setup, consisting of a Leica DMI 4000 b inverted microscope equipped with a DFC360 FX (CCD) camera, Fura-2 filters, and an N-Plan 10×/0.25 Ph1 objective (all from Leica), was used. […] For each experiment, an area with large cell numbers 24 h after preparation (see DRG primary cultures) was chosen and 40-110 cells were monitored simultaneously. […]
(§3) TRPV1 sensitization can be mediated by PKA or PKC (Schnizler et al., 2008; Bhave et al., 2003). To investigate the signaling pathway between G2A and TRPV1 in DRG neurons, we determined which protein kinases are involved in sensitization of TRPV1. […]

A further data set relates to PKA. Kind of data set: PKA inhibitor on TRPV1 sensitization in DRG neurons (calcium imaging). It counts as cell-based, mice. As to conditions: H89 10 μM 45 mins. The protocol: as §1, §2, §3
The test system of a further data set is C57BL/6N mice. Kind of data set: Mechanical pain thresholds of mice after oxaliplatin (dynamic plantar aesthesiometer). The class given is in vivo. To be noted: oxaliplatin 3 mg/kg i.p. From the text: In all behavioral tests the experimenter was unaware of the treatment and the genotype of the mice. For all behavioral experiments we used only 6-12 weeks old C57BU6N mice purchased from commercial breeding companies (Charles River, Sulzfeld, Germany, Janvier, Le Geneset-Saint-lsle, FR). G2A and TRPV1 knockout strains were from Jackson laboratories. All experiments followed the ethics guidelines for investigations in conscious animals and the procedures were approved by the local Ethics Committee. […]
To determine the mechanical thresholds of mice, a Dynamic Plantar Aesthesiometer (Ugo Basile, Comerio, Italy) was used. […] Therefore, a steel rod pushed against the plantar side of the hind paw with linear ascending force (0-5 g over 10 s, in 0.5 g/s intervals) until a fast withdraw of the paw was observed The time between the first contact of the steel rod and the paw withdraw was measured in seconds (paw withdraw latency) and a cut-off time of 20 s was set.
To investigate whether or not alterations in concentrations of oxidized lipids occur during oxaliplatin-induced neuropathic pain, 3 mg/kg oxaliplatin (Nassini et al., 2011) was injected i.p. in C57BL/6N mice and the paw withdrawal latency over 10 days was monitored using a dynamic plantar aesthesiometer. […]

Another data set deals with DRGs. Kind of data set: Real-time RT-PCR of DRGs of oxaliplatin treated mice. The class given is in vivo. To be noted: lumbal DRGs, day 10 after oxaliplatin treatment. On the procedure:
Lumbar DRGs (L2-L6) were dissected, quick-frozen in liquid nitrogen and stored at −80° C. Total RNA of the DRGs was isolated under RNase-free conditions using a mirVana miRNA Isolation Kit (Ambion) according to the manufacturer's instructions and quantified with a NanoDrop ND-1000 spectrophotometer (NanoDrop Technologies). The cDNA was synthesized from 200 ng RNA using a First Strand cDNA Synthesis Kit (Thermo Scientific) according to the manufacturer's instructions. Real-time RT-PCR was performed using an ABI Prism 7500 Sequence Detection System (Applied Biosystems) using Maxima SYBR Green qPCR Master Mix ROX as well as suitable primers for CYP2C37 (Luo et al., 1998), CYP2C38 (Zhang et al., 2003), CYP2C39 (Luo et al., 1998), CYP2J6 (Choudhary et al., 2003) and CYP3A11 (Chavan et al., 2015).
For analysis of GAPDH (Mm99999915_g1), G2A (Mm02620285_s1), 5-LOX (Mm01182747 m1), 12-LOX (Mm00545833_m1), 15-LOX (Mm00507789_m1) and COX-2 (Mm03294838_g1) assay primer from ThermoFisher Scientific were used. Reactions (total volume 10 μl) were performed in triplicate by incubating at 95° C. for 10 min, followed by 40 cycles of 15 s at 95° C. and 1 min at 60° C. […] Relative expression of target gene levels was determined using the ΔΔCt method, with Ct indicating the cycle number at which the signal of the PCR product crosses a defined threshold set within the exponential phase of the PCR. […]
For orientation: Quantitative PCR measures a nucleic acid by following its amplification.

The next data set relates to patients. To be noted: cited from earlier work.

“Also recorded” adds a separate entry of the source.

Take `CCCCCC(O)/C=C/C=C\CCCCCCCC(=O)O` (stereo not drawn) [13-HODE]: in the data set on TRPV1 (DRG neurons, lipid incubated 2 minutes before second capsaicin stimulus, 0 to 1000 nM), the “sensitization of TRPV1 (Δratio of first and second capsaicin stimulus)” value is “no strong sensitizing effect”. Further, in the data set with TRPV1 (wildtype DRG neurons, lipid 200 nM 120 s, capsaicin 200 nM 30 s), the “calcium flux of second vs first capsaicin stimulus (Δratio)” value is reported as “does not increase the Δratio”.

As to `CN(C)CCCn1cc(C2=C(c3c[nH]c4ccccc34)C(=O)NC2=O)c2ccccc21` [GF109203X], in the data set with PKC, the “effect on 9-HODE-induced TRPV1 sensitization” value is “supresses the 9-HODE-dependent sensitization of TRPV1; also recorded: prevented TRPV1 sensitization”.

For the molecule `O=S(=O)(NCCNC/C=C/c1ccc(Br)cc1)c1cccc2cnccc12` [H89], in the data set with PKA (8-bromo-cAMP 40 μM), the “effect on PKA-dependent TRPV1 sensitization caused by 8-bromo-cAMP” value is on record as “inhibited”. Also, in the data set on PKA (9-HODE 200 nM), the “effect on 9-HODE-induced TRPV1 sensitization” value is given as “not influenced; also recorded: failed to supress”.

On to `O=C1[O][Pt]2([NH][C@@H]3CCCC[C@H]3[NH]2)[O]C1=O` [oxaliplatin], for which the “start of reduced mechanical paw withdrawal latencies” value in the data set with C57BL/6N mice worked out at 4 days. In addition, the “mechanical paw withdrawal latencies” value in the data set with C57BL/6N mice (C57BL/6N mice, monitored over 10 days) was “significantly reduced mechanical paw withdrawal latencies”. Besides, the “mRNA expression of CYP2J6, 5-LOX, 12-LOX, 15-LOX and COX-2” value in the data set with DRGs was “No difference in mRNA expression”. Further, the “patients in whom CIPN is induced” value in the data set with patients is given as “up to 80%”.
